ChEMBL document CHEMBL1124193, “Synthesis and bacterial DNA gyrase inhibitory properties of a spirocyclopropylquinolone derivative” (J Med Chem, 1988)
≈ marks a conversion by molar mass, not a printed value.

test system: Mus musculus; assay: In vivo antibacterial activity against Escherichia coli (Vogel) in mice administered perorally; type: functional; conditions: po, read-out: PD50

Structure (SMILES)	ED50
CN1CCN(c2c(F)cc3c(=O)c(C(=O)O)cn4c3c2OCC42CC2)CC1	6.3 mg/kg
CC1COc2c(N3CCN(C)CC3)c(F)cc3c(=O)c(C(=O)O)cn1c23 (stereo unspecified) [OFLOXACIN]	2.2 mg/kg
O=C(O)c1cn(C2CC2)c2cc(N3CCNCC3)c(F)cc2c1=O [CIPROFLOXACIN]	0.86 mg/kg
C[C@H]1COc2c(N3CCN(C)CC3)c(F)cc3c(=O)c(C(=O)O)cn1c23.C[C@H]1COc2c(N3CCN(C)CC3)c(F)cc3c(=O)c(C(=O)O)cn1c23.O [LEVOFLOXACIN]	10.1 mg/kg

test system: Escherichia coli; assay: In vitro minimum inhibitory concentration against Escherichia coli (ATCC […]25922); type: functional; conditions: not given

Structure (SMILES)	MIC
CN1CCN(c2c(F)cc3c(=O)c(C(=O)O)cn4c3c2OCC42CC2)CC1	0.125 µg/mL (≈ 0.335 µM)

test system: Bacteroides fragilis; assay: In vitro minimum inhibitory concentration against Bacteroides fragilis (ATCC 25285); type: functional; conditions: not given

Structure (SMILES)	MIC
CN1CCN(c2c(F)cc3c(=O)c(C(=O)O)cn4c3c2OCC42CC2)CC1	8 µg/mL (≈ 21.4 µM)
CC1COc2c(N3CCN(C)CC3)c(F)cc3c(=O)c(C(=O)O)cn1c23 (stereo unspecified) [OFLOXACIN]	0.5 µg/mL (≈ 1.38 µM)
O=C(O)c1cn(C2CC2)c2cc(N3CCNCC3)c(F)cc2c1=O [CIPROFLOXACIN]	2 µg/mL (≈ 6.04 µM)
C[C@H]1COc2c(N3CCN(C)CC3)c(F)cc3c(=O)c(C(=O)O)cn1c23.C[C@H]1COc2c(N3CCN(C)CC3)c(F)cc3c(=O)c(C(=O)O)cn1c23.O [LEVOFLOXACIN]	16 µg/mL

test system: Enterococcus faecalis; assay: In vitro minimum inhibitory concentration against Streptococcus faecalis (ATCC 29212); type: functional; conditions: not given

Structure (SMILES)	MIC
CN1CCN(c2c(F)cc3c(=O)c(C(=O)O)cn4c3c2OCC42CC2)CC1	8 µg/mL (≈ 21.4 µM)
CC1COc2c(N3CCN(C)CC3)c(F)cc3c(=O)c(C(=O)O)cn1c23 (stereo unspecified) [OFLOXACIN]	2 µg/mL (≈ 5.53 µM)
O=C(O)c1cn(C2CC2)c2cc(N3CCNCC3)c(F)cc2c1=O [CIPROFLOXACIN]	0.5 µg/mL (≈ 1.51 µM)
C[C@H]1COc2c(N3CCN(C)CC3)c(F)cc3c(=O)c(C(=O)O)cn1c23.C[C@H]1COc2c(N3CCN(C)CC3)c(F)cc3c(=O)c(C(=O)O)cn1c23.O [LEVOFLOXACIN]	16 µg/mL

test system: Streptococcus pneumoniae; assay: In vitro minimum inhibitory concentration against Streptococcus pneumoniae (ATCC 6301); type: functional; conditions: not given

Structure (SMILES)	MIC
CN1CCN(c2c(F)cc3c(=O)c(C(=O)O)cn4c3c2OCC42CC2)CC1	8 µg/mL (≈ 21.4 µM)
O=C(O)c1cn(C2CC2)c2cc(N3CCNCC3)c(F)cc2c1=O [CIPROFLOXACIN]	0.25 µg/mL (≈ 0.754 µM)

test system: Pseudomonas aeruginosa; assay: In vitro minimum inhibitory concentration against Pseudomonas aeruginosa (ATCC 27853); type: functional; conditions: not given

Structure (SMILES)	MIC
CN1CCN(c2c(F)cc3c(=O)c(C(=O)O)cn4c3c2OCC42CC2)CC1	4 µg/mL (≈ 10.7 µM)
CC1COc2c(N3CCN(C)CC3)c(F)cc3c(=O)c(C(=O)O)cn1c23 (stereo unspecified) [OFLOXACIN]	0.5 µg/mL (≈ 1.38 µM)
C[C@H]1COc2c(N3CCN(C)CC3)c(F)cc3c(=O)c(C(=O)O)cn1c23.C[C@H]1COc2c(N3CCN(C)CC3)c(F)cc3c(=O)c(C(=O)O)cn1c23.O [LEVOFLOXACIN]	32 µg/mL

test system: Mus musculus; assay: In vivo antibacterial activity against Escherichia coli (Vogel) in mice administered subcutaneously; type: functional; conditions: sc, read-out: PD50

Structure (SMILES)	ED50
CN1CCN(c2c(F)cc3c(=O)c(C(=O)O)cn4c3c2OCC42CC2)CC1	1.9 mg/kg
CC1COc2c(N3CCN(C)CC3)c(F)cc3c(=O)c(C(=O)O)cn1c23 (stereo unspecified) [OFLOXACIN]	1.2 mg/kg
O=C(O)c1cn(C2CC2)c2cc(N3CCNCC3)c(F)cc2c1=O [CIPROFLOXACIN]	0.2 mg/kg
C[C@H]1COc2c(N3CCN(C)CC3)c(F)cc3c(=O)c(C(=O)O)cn1c23.C[C@H]1COc2c(N3CCN(C)CC3)c(F)cc3c(=O)c(C(=O)O)cn1c23.O [LEVOFLOXACIN]	3.8 mg/kg

test system: Staphylococcus aureus; assay: In vitro minimum inhibitory concentration against Staphylococcus aureus (ATCC 29213); type: functional; conditions: not given

Structure (SMILES)	MIC
CN1CCN(c2c(F)cc3c(=O)c(C(=O)O)cn4c3c2OCC42CC2)CC1	2 µg/mL (≈ 5.36 µM)
CC1COc2c(N3CCN(C)CC3)c(F)cc3c(=O)c(C(=O)O)cn1c23 (stereo unspecified) [OFLOXACIN]	0.25 µg/mL (≈ 0.692 µM)
O=C(O)c1cn(C2CC2)c2cc(N3CCNCC3)c(F)cc2c1=O [CIPROFLOXACIN]	0.25 µg/mL (≈ 0.754 µM)
C[C@H]1COc2c(N3CCN(C)CC3)c(F)cc3c(=O)c(C(=O)O)cn1c23.C[C@H]1COc2c(N3CCN(C)CC3)c(F)cc3c(=O)c(C(=O)O)cn1c23.O [LEVOFLOXACIN]	2 µg/mL
